Laboratory results reported in ChEMBL document CHEMBL3045138, “Peroxidizing Phytotoxic Activity of Pyrazoles” (J Pestic Sci, 1995).

Columns and labels:
Scenedesmus acutus [1] = test: Phytotoxicity against Scenedesmus acutus assessed as inhibition of chlorophyll content after 16 hr by spectrophotometry relative to untreated control; type: functional
Scenedesmus acutus [2] = test: Growth inhibition of Scenedesmus acutus assessed as packed cell volume per ml of algal culture volume after 16 hr (reference value: 3.8 ul pcv/ml); type: functional

With C#CCOc1cc(N2C(=O)C3=C(CCCC3)C2=O)c(F)cc1Cl the “inhibition (INH)” value (Scenedesmus acutus [1]) was 73.6% and the Activity (Scenedesmus acutus [2]) was 2.4 uL/ml.
With Fc1cc(Cl)c(OC(F)F)cc1-n1nc2c(c1Cl)CCCC2 the “inhibition (INH)” value (Scenedesmus acutus [1]) was 89.7% and the Activity (Scenedesmus acutus [2]) was 1.5 uL/ml.
In the case of N#Cc1cnn(-c2c(Cl)cc(C(F)(F)F)cc2Cl)c1N, the “inhibition (INH)” value (Scenedesmus acutus [1]) is reported as 61% and the Activity (Scenedesmus acutus [2]) is reported as 2 uL/ml.
In the case of COc1cc(-n2nc(C)c(C)c2C)c(F)cc1Cl, the “inhibition (INH)” value (Scenedesmus acutus [1]) is reported as 0% and the Activity (Scenedesmus acutus [2]) is reported as 4.1 uL/ml.
For C/C=C/COc1cc(-n2nc(C)c(C)c2C)c(F)cc1Cl, the “inhibition (INH)” value (Scenedesmus acutus [1]) was 17.2% and the Activity (Scenedesmus acutus [2]) was 3.5 uL/ml.
With C#CCOc1cc(-n2nc(C)c(Cl)c2C)c(Cl)cc1Cl the “inhibition (INH)” value (Scenedesmus acutus [1]) was 0% and the Activity (Scenedesmus acutus [2]) was 4 uL/ml.
In the case of C#CCOc1cc(-n2nc(CC)c(Cl)c2CC)c(F)cc1Cl, the “inhibition (INH)” value (Scenedesmus acutus [1]) is reported as 30.3% and the Activity (Scenedesmus acutus [2]) is reported as 2.7 uL/ml.
Cc1nn(-c2cc(OC(C)C)c(Cl)cc2F)c(C)c1C was tested, and the “inhibition (INH)” value (Scenedesmus acutus [1]) was 11.1% and the Activity (Scenedesmus acutus [2]) was 3.9 uL/ml.
Cc1cc(C)n(-c2ccc(Cl)cc2F)n1 was tested, and the “inhibition (INH)” value (Scenedesmus acutus [1]) was 0% and the Activity (Scenedesmus acutus [2]) was 4.1 uL/ml.
With C#CCOc1cc(-n2nc(C)c(Cl)c2C)c(Cl)cc1F the “inhibition (INH)” value (Scenedesmus acutus [1]) was 26.7% and the Activity (Scenedesmus acutus [2]) was 3.1 uL/ml.
C#CCOc1cc(-n2nc(C)c(Cl)c2C)c(F)cc1Cl was tested, and the “inhibition (INH)” value (Scenedesmus acutus [1]) was 38.5% and the Activity (Scenedesmus acutus [2]) was 2.7 uL/ml.
Cc1nn(-c2cc(OC(C)C)c(Cl)cc2F)c(C)c1[N+](=O)[O-] was tested, and the “inhibition (INH)” value (Scenedesmus acutus [1]) was 17.7% and the Activity (Scenedesmus acutus [2]) was 3.5 uL/ml.
With C#CCOc1cc(-n2nc(C)c([N+](=O)[O-])c2C)c(F)cc1Cl the “inhibition (INH)” value (Scenedesmus acutus [1]) was 46% and the Activity (Scenedesmus acutus [2]) was 2.5 uL/ml.
In the case of O=C1C2=C(CCCC2)C(=O)N1c1ccc(Cl)cc1 [CHLOROPHTHALIUM], the “inhibition (INH)” value (Scenedesmus acutus [1]) is reported as 72.3% and the Activity (Scenedesmus acutus [2]) is reported as 2.5 uL/ml.
In the case of CCOc1cc(Oc2ccc(C(F)(F)F)cc2Cl)ccc1[N+](=O)[O-] [OXYFLUORFEN], the “inhibition (INH)” value (Scenedesmus acutus [1]) is reported as 92.2% and the Activity (Scenedesmus acutus [2]) is reported as 1.4 uL/ml.
